From PMC6479694, “Studies on the Interaction between Poly-Phosphane Gold(I) Complexes and Dihydrofolate Reductase: An Interplay with Nicotinamide Adenine Dinucleotide Cofactor” (International Journal of Molecular Sciences, 2019)
Where “and” joins values, the source holds several entries; their conditions need not be identical. Identical values can stand only once. Like-named read-outs stand apart in the source and are kept apart here.

Tests used:
DHFR from E. coli [1] = target: T1, DHFR from E. coli (Escherichia coli, UniProt P0ABQ4); test: Fluorimetric binding assay, quenching of DHFR tryptophan emission (λexc = 280 nm); settings: for TΔS°: from van't Hoff analysis; for ΔG°: standard free energy equation from ΔH° and TΔS°; for ΔH° / ΔS°: van't Hoff equation from Kd at 25, 10 and −4 °C
T1 construct: made in house
Experimental: The Hepes/methanol solutions of the gold(I) compounds were used for the fluorimetric assays (see materials and methods section) regarding DHFR from E. coli. The emission’s maximum of DHFR was detected at 344 nm upon excitation at 280 nm; by adding additional amounts of the gold complex in Hepes/methanol solutions (ranging among 4 ÷ 50 µM), the quenching of this emission intensity was observed. In Figure 3, spectra showing the effect of ^4L3AuCl on DHFR emission are reported. It is possible to observe the quenching of the Tryptophan’s emission and the corresponding increase of the intrinsic phosphorescence of the gold compound.
(§1) The fluorimetric analysis was performed using a 1 mL quartz cuvette and a Perkin–Elmer Fluorescence Spectrometer LS 55. For all the analysis we used 5–12 µM solutions of DHFR and increasing concentrations of gold(I) compounds in the 4–60 µM range. For some experiments, saturating concentrations of NADPH (50 µM) were added to the initial solutions of DHFR to observe the affinity variation of the complexes with respect to the DHFR.
All the spectra were recorded in the range between 250 and 600 nm using an excitation wavelength characteristic of the Tryptophan, equal to 280 nm. For most of the experiments the temperature was kept constant at 25 °C; furthermore, to analyze the thermodynamic aspects of the reactions (via the van’t Hoff equation), quenching spectra of DHFR in presence of the gold(I) complexes were recorded at −4 and 10 °C as well.
(§2) The fluorimetric data were analyzed using the binding isotherm (Equation (2)), where [Q] is the concentration of the added quenching ligand, F is the measured fluorescence, F0 is the starting fluorescence, Fc is the fluorescence of the fully complexed protein, Kd is the dissociation constant, and n is the Hill coefficient. Indeed, n is a phenomenological parameter, an interaction coefficient, such as when n = 1 the equation describes a complex formation with one site of interaction, when n = 2 binding occurs with a dimer, when 1 < n < 2 a cooperative interaction occurs. (2) F0−F/F−Fc=[Q]^n/(Kd+[Q])^n

DHFR from E. coli [2] = target: T1, DHFR from E. coli; test: Inhibition of DHFR-catalysed reduction of H2F to H4F, spectrophotometric at 340 nm, Dixon plot; assay type: biochemical; settings: pH 7.3, 30 °C, saturating NADPH, H2F 1.5-10 µM, Hepes/methanol
Experimental: The phosphane gold(I) compounds were used to prepare buffered stock solutions at pH = 7.3 at 30 °C for the inhibition tests of DHFR from E coli. In Table 1, the list of the gold(I) compounds used for the tests and the corresponding inhibition constants are reported.
The inhibition action of the gold phosphane compounds was tested in regards to the reduction of H2F to H4F reaction, catalyzed by DHFR [2]. The inhibition tests were led by analyzing the reciprocal reaction rate upon the addition of Hepes/methanol solutions of gold compounds in different set of tests in the saturated concentration of NADPH. The tests were repeated with different amounts of dihydrofolate (DHF) (1.5 ÷ 10 µM).
The standard deviations were calculated for a minimum of three determinations. (1) 1/ν=Km/VmaxKi[S]∗[I]+1/Vmax(1+Km/[S])
The activity of the DHFR was followed by recording the absorbance with a Shimadzu UV-2450 (UV-Vis spectrophotometer). The enzyme assays were made in a quartz cuvette by using similar experimental conditions: DHFR 3-5 nM, NADPH 60–80 μM, and H2F 1.5, 4, and 10 μM. The procedure consisted in the preparation of the following mixtures: 800–971 µL of 50 mM Hepes buffer at pH = 7.3, 20 μL of NADPH, 10 µl of DHFR, and increasing quantities of gold(I) compounds stock solutions in order to achieve higher accuracy in the measurement of the inhibitory effect. After storing the mixture for 5 min at 30 °C, 4–33 µL of H2F was added. The decreasing absorbance at 340 nm, due to the oxidation of NADPH to NADP^+, was detected after adding the H2F, and expressed in U mL^−1 using the equation: U·mL^−1 = Δabs/Δt/11.8 × dilution factor, where 11.8 is the mMolar extinction coefficient when NADPH and H2F are simultaneously present in solution. The Ki values were calculated with the Dixon plot from the second plot obtained computing the slope values against the reciprocal of the H2F concentrations.

DHFR/NADPH = target: T2, DHFR/NADPH (Escherichia coli, UniProt P0ABQ4); test: Fluorimetric binding assay on DHFR in presence of saturating NADPH; settings: 25 °C, saturating NADPH (50 µM); read-out: Kd ± s.d. (25 °C) in presence of saturating NADPH
T2 construct: made in house
Text: After these preliminary emissive property characterizations, the fluorimetric studies were led in the presence of the enzyme DHFR and the cofactor NADPH [26]. […] Additionally, NADPH is fluorescent, with an absorption maximum at about 340 nm and an emission maximum at about 450 nm. […] Moreover, because NADPH has a maximum of absorption at 340 nm, significant energy transfer from the excited tryptophan of the enzyme to bound NADPH occurs; as a consequence, a new emission at 420–450 nm is then observed. Figure 8 reports the progressive quenching of the DHFR and NADPH emissions by stepwise adding of solution of ^4L3AuCl. Moreover, a slight shift of the typical emission at […] (λexc = 280 nm) is observed.
as §1, §2

DHFR from E. coli [3] = target: T1, DHFR from E. coli; parameters: method as in PMID 25567238; settings: values obtained in a previous work, cited from earlier work
DHFR = system: DHFR; parameters: method as in PMID 17920, PMID 12359872; settings: cited from earlier work
[4] = UV-visible spectroscopy stability test in Hepes/methanol solution; assay type: physicochemical; settings: 11.85 µM, Hepes/methanol 80:20, 30 °C, one hour, every 3 minutes
Experimental: The preparation of the gold compounds was performed according to methods already published and was based on the substitution of the labile ligand from the gold precursor [AuCl(Me2S)], by mean of a more coordinative ligand, such as the PPh3 or its modified analogs, ^4L and ^2L. Mole ratio with an excess of the phosphane ligand was pursued with the aim to enhance the reaction yield for tris-phosphane compounds. The solids obtained by crystallization were characterized by elemental analysis, ^1H and ^31P NMR, IR, and ESI Mass spectrometry. The stability of the stock solutions upon dilution was checked by recording UV-visible spectra (see Supplementary Material, Figures S1 and S2). The reactants for the ester reaction and ^4L or ^2L ligands were bought from Aldrich and used without any purification. Methanol or methylene chloride solvents were degassed and dried over molecular sieves.
UV-visible spectroscopy stability tests of compounds 4L3AuCl, 4L2AuCl, and 2L2AuCl on […]
Acquisitions of the absorptions in the range of 200–700 nm of the tested solutions were led for an hour lapse every 3 minutes in 11.85 µM concentration of 4L3AuCL (figure S1), 4L2AuCl, and 2L2AuCl (figure S2) at 30 °C. The stability was tested in Hepes/methanol 80:20, which are the same conditions used for the inhibition tests.
Figure S1. UV-visible spectra for 11.85 µM of 4L3AuCl in hepes/methanol
(1 picture or pasted object on this page, not shown here)

[5] = 25 °C, without NADPH, Hepes/methanol, read-out: Kd ± s.d., T = 25 °C
[6] = 10 °C, without NADPH, read-out: Kd ± s.d. (10 °C) (converted)
[7] = −4 °C, without NADPH, read-out: Kd ± s.d. (−4 °C) (converted)
[8] = 25 °C, when not specified n = 1

Compound | Kd (DHFR from E. coli [1]; [5]) [µM] | Ki (DHFR from E. coli [2]) [µM] | Kd (DHFR/NADPH) [µM] | Kd (DHFR from E. coli [1]; [6]) [µM] | TΔS° (DHFR from E. coli [1]) | ΔG° (DHFR from E. coli [1]) | ΔH° (DHFR from E. coli [1]) | ΔS° (DHFR from E. coli [1]) | Kd (DHFR from E. coli [1]; [7]) [µM] | Ki (DHFR from E. coli [3]; read-out: Ki) | other results
O=C(O)c1ccccc1 [Benzoic acid, reference compound] | ~4000 | – | – | – | – | – | – | – | – | – | –
[Cl][Au]([PH](c1ccccc1)(c1ccccc1)c1ccccc1)[PH](c1ccccc1)(c1ccccc1)c1ccccc1 [L2AuCl, (PPh3)2AuCl] | 5.99 ± 0.4 | 0.53 ± 0.03 | 2.22 ± 0.25 | 2.47 | 2.5 n. d. * kcal/mol | −7.37 n. d. * kcal/mol | −4.87 n. d.* kcal/mol | 8.42 n. d. * cal/mol K | 3.83 | – | Kd (DHFR from E. coli [1]; conditions not stated in the conclusions, read-out: thermodynamic constant for the dissociation of the adduct [DHFR:(PPh3)2AuCl]): ~2 µM
c1ccc(P(c2ccccc2)c2ccccc2)cc1 [L, PPh3, reference compound] | – | – | – | – | – | – | – | – | – | 6160 ± 770 nM | –
[Cl][Au].c1ccc(P(c2ccccc2)c2ccccc2)cc1 [LAuCl, PPh3AuCl] | – | – | – | – | – | – | – | – | – | 1210 ± 200 nM | –
CN(Cc1cnc2nc(N)nc(N)c2n1)c1ccc(C(=O)N[C@@H](CCC(=O)O)C(=O)O)cc1 [Methotrexate] | – | – | – | – | – | – | – | – | – | – | stronger bond to DHFR than DHF (factor) (DHFR): 10^3
O=C(O)c1ccccc1P(c1ccccc1)c1ccccc1.O=C(O)c1ccccc1P(c1ccccc1)c1ccccc1.[Cl][Au] [^2L2AuCl, (2COOHPh-Ph2P)2AuCl] | 10.3 ± 0.65 | – | 4.73 ± 0.68 | – | – | – | – | – | – | 2000 nM and 2070 nM | Stability of the solution (UV-visible spectra 200–700 nm) [4]: no overall changes in solution over
O=C(O)c1ccccc1P(c1ccccc1)c1ccccc1.O=C(O)c1ccccc1P(c1ccccc1)c1ccccc1.O=C(O)c1ccccc1P(c1ccccc1)c1ccccc1.[Cl][Au] [^2L3AuCl, [tris(2-benzoate-diphenylphosphanyl)-gold(I)chloride]] | 10.5 ± 1.07 | 21.3 ± 3.8 | 7.32 ± 2.46 | 7.12 | 2.86 ± 0.1 kcal/mol | -6.8 ± 0.14 kcal/mol | -3.94 ± 0.1 kcal/mol | 9.58 ± 0.08 cal/mol K | 5.11 | – | n = Hill coefficient (DHFR from E. coli [1]; 10 °C): 1.41 ± 0.048; n = Hill coefficient (DHFR from E. coli [1]; [8]): 1.23 ± 0.082
O=C(O)c1ccccc1P(c1ccccc1)c1ccccc1 [^2L, 2-(diphenylphosphine) benzoic acid, reference compound] | – | – | – | – | – | – | – | – | – | – | Ki (DHFR from E. coli [3]): No inhibition *
O=C(O)c1ccccc1P(c1ccccc1)c1ccccc1.[Cl][Au] [^2LAuCl, (2COOHPh-Ph2P)AuCl] | – | – | – | – | – | – | – | – | – | 1100 ± 300 nM | –
O=C(O)c1ccc(P(c2ccccc2)c2ccccc2)cc1.O=C(O)c1ccc(P(c2ccccc2)c2ccccc2)cc1.[Cl][Au] [^4L2AuCl, (4COOHPh-Ph2P)2AuCl] | 4.42 ± 0.56 | – | 2.35 ± 0.61 | 3.52 | 5.29 ± 0.2 kcal/mol | -7.31 ± 0.28 kcal/mol | -2.02 ± 0.2 kcal/mol | 17.76 ± 0.1 cal/mol K | 3.06 | 27000 nM and 27800 nM | Stability of the solution (UV-visible spectra 200–700 nm) [4]: no overall changes in solution over
O=C(O)c1ccc(P(c2ccccc2)c2ccccc2)cc1.O=C(O)c1ccc(P(c2ccccc2)c2ccccc2)cc1.O=C(O)c1ccc(P(c2ccccc2)c2ccccc2)cc1.[Cl][Au] [^4L3AuCl, [tris(4-benzoate-diphenylphosphanyl)-gold(I)chloride]] | 3.84 ± 0.29 | 4.6 ± 0.5 | 5.05 ± 2.7 | 3.32 | 2.19 ± 0.1 kcal/mol | -7.23 ± 0.12 kcal/mol | -5.04 ± 0.08 kcal/mol | 7.34 ± 0.005 cal/mol K | 2 | – | Stability of the solution (UV-visible spectra 200–700 nm) [4]: no overall changes in solution over; n = Hill coefficient (DHFR from E. coli [1]; [8]): 1.73
O=C(O)c1ccc(P(c2ccccc2)c2ccccc2)cc1.O=C(O)c1ccc(P(c2ccccc2)c2ccccc2)cc1.O=C(O)c1ccc(P(c2ccccc2)c2ccccc2)cc1.O=S(=O)([O][Au])C(F)(F)F [^4L3AuTfl, [tris(4-benzoate-diphenylphosphanyl)-gold(I)triflate]] | 21.4 ± 3.85 | 6.33 ± 0.7 | – | – | 1.17 ± 0.9 kcal/mol | – | -5.32 ± 3.2 kcal/mol | 3.92 ± 8.8 cal/mol K | 8.08 | – | –
O=C(O)c1ccc(P(c2ccccc2)c2ccccc2)cc1 [^4L, 4-(diphenylphosphino)benzoic acid, reference compound] | 59.6 ± 5.7 | – | – | – | – | – | – | – | – | – | Ki (DHFR from E. coli [3]): No inhibition *
O=C(O)c1ccc(P(c2ccccc2)c2ccccc2)cc1.[Cl][Au] [^4LAuCl, (4COOHPh-Ph2P)AuCl] | – | – | – | – | – | – | – | – | – | 2250 ± 620 nM | –
COC(=O)c1ccc(P(c2ccccc2)c2ccccc2)cc1.COC(=O)c1ccc(P(c2ccccc2)c2ccccc2)cc1.COC(=O)c1ccc(P(c2ccccc2)c2ccccc2)cc1.[Cl][Au] [^4MeL3AuCl] | 13.4 ± 2.24 | 12.7 ± 2.1 | 4.55 ± 1.04 | 7.63 | 2.29 n. d. * kcal/mol | −6.64 n. d. * kcal/mol | −4.35 n. d. * kcal/mol | 7.69 n. d. * cal/mol K | 21.2 | – | –
